The text below walks through data of article PMC7179205, “An Improved Synthesis of Key Intermediate to the Formation of Selected Indolin-2-Ones Derivatives Incorporating Ultrasound and Deep Eutectic Solvent (DES) Blend of Techniques, for Some Biological Activities and Molecular Docking Studies” (Molecules, 2020).

For data set [1], the system named is acetic acid-induced writhing. Description: acetic acid-induced writhing method (analgesic activity). Type of data set: in vivo, Swiss albino mice. To be noted: for inhibition in vivo at 10 mg/kg: Mus musculus, read-out: % Analgesic Activity; for Potency (analgesic): relative to indomethacin = 1.00; for Mean with ± SEM: writhes counted for 15 min; for analgesic activity (in words): compared with standard indomethacin. Here is the method:
All the tested compounds and standard drugs are evaluated at 10 mg/kg oral dose.
The analgesic activity of the tested compounds was carried out by acetic acid-induced writhing method as given in the literature using Swiss albino mice of either sex (25–35 g). The writh were induced in the albino mice using an intraperitoneal injection of 1% acetic acid solution. The standard drug indomethacin and test compounds were evaluated at a concentration of 10 mg/kg of the body weight. The animals were divided into groups and each group consisted of six animals. One group was kept as control, one as standard, and other as test groups. To the control group, 0.1% CMC solution was administered p.o; to the standard group, the standard drug was administered orally, and to the test group, test compounds were administered orally. After 60 min of the 0.1% CMC solution/standard drug/tested compound administration, 0.1 ml of 1% (v/v) acetic acid solution in distilled water was injected intraperitoneally in all the mice in each group including the control group. The writhing (a contraction of the abdomen, turning of trunk, and extension of hind limbs) was counted after 5 min of acetic acid administration and were counted for a period of 15 min. The percentage of analgesic activity was calculated using the following formula.
(Mean wriths of control—mean wriths of std./test) / mean wriths of control) × 100
Background: Writhing tests count abdominal constrictions after an irritant is injected.

The subject of another data set is gastric tissue. Description: lipid peroxidation (MDA content of gastric tissue). To be noted: for MDA content (lipid peroxidation): as repeated in Table 4, the values are: MDA content (lipid peroxidation); for Nanomoles of MDA Content ± SEM/ 100 mg Tissue: gastric tissue. The format is in vivo. On the procedure:
Gastrointestinal (GI) ulceration, bleeding, and renal problems are common complications of NSAID’S consumption, which is directly related to lipid peroxidation. […] It was measured as the nmol of MDA/100 mg of gastric tissue. We have found the Lipid peroxidation value was maximum 6.71 ± 0.18 for indomethacin, whereas 3.89 ± 0.17, 4.08 ± 0.22, 4.26 ± 0.12, and 4.81 ± 0.13 for compounds 4i, 4c, 4f, and 4n, respectively.
The method adopted for lipid peroxidation is the same as Ohkawaet al. and the recent work of our researchers.

Another data set deals with Rat Paw Edema. As to the kind of experiment: carrageenan-induced hind paw edema method (anti-inflammatory activity). To be noted: for inhibition in vivo at 10 mg/kg: Rattus norvegicus, po; for inhibition in vivo at 10 mg/kg / % Age Inhibition of Rat Paw Edema, 4 H / anti-inflammatory activity (in words): oral dose 10 mg/kg; for inhibition in vivo at 10 mg/kg / % Age Inhibition of Rat Paw Edema, 4 H: mean ± SEM; for Potency (anti-inflammatory): relative to indomethacin = 1.00; for anti-inflammatory activity (in words): compared with standard indomethacin. Type of data set: in vivo, Wistar albino rats. On the procedure:
The anti-inflammatory activity of the synthesized compounds (4a–n) was evaluated by the carrageenan-induced paw edema method. An oral dose of 10 mg/kg was used for compounds and compared with the standard. Anti-inflammatory activity was accessed through percentage inhibition after 2 and 4 h (Table 1).
Compounds produced were assessed for their anti-inflammatory activity using the carrageenan-induced hind paw edema method. The anti-inflammatory activity was carried out using Wistar albino rats of either sex (150–220 g) using a Digital Plethysmometer (Model No. 7140, UGO BASILE). The edema was induced by using 1% carrageenan solution. Indomethacin was used as a standard drug. The anti-inflammatory activity of the standard drug and tested compounds was determined at a dose of 10 mg/kg body weight. The animals were divided into groups containing six animals each and the initial paw volume of each rat was noted by the NaCl displacement method. One group was kept as control, one as standard, and the rest of the groups of compounds were to be tested. To the control group, 1% CMC solution was administered p.o. To the standard group, the standard drug was administered orally. To the test group, tested compounds were administered orally. After 60 min of the 1% CMC solution/standard drug/test compound administration, 0.1 ml of 1% (w/v) carrageenan was injected in the plantar region of the hind limb (right) of all the rats in each group including the control group. The paw volume was again measured after the time interval of 2 and 4 h. Using the following formula, inflammation was calculated as percentage inhibition for the test and reference compounds
(Final foot volume of control—final foot volume of std./test) × 100 / final foot volume of control)

The next data set concerns gastric mucosal damage. As to the kind of experiment: acute ulcerogenic activity (severity index of gastric mucosal damage). Type of data set: in vivo, Wistar rats. Particulars: for Severity Index: test compounds 30 mg/kg oral, indomethacin 10 mg/kg or 20 mg/kg, 17 h after dose, mean ± SEM. Here is the method: Four compounds, namely, 4c (Ar = 4-chlorophenyl), 4f (Ar = 2-chlorophenyl), 4i (Ar = 4-fluoro-3-chlorophenyl), and 4n (Ar = 2-methylphenyl) were selected for their ulcerogenic activity. This selection was based on their anti-inflammatory and analgesic activity. Compounds were evaluated at an oral dose of 30 mg/kg relative to 10 mg/kg indomethacin.
Acute ulcerogenic activity evaluation of the synthesized compounds was carried out according to the method described using Wistar rats of either sex (180–220 g). The animals were distributed into control, group, and test group. Each group consisted of six rats. All the rats fasted for 24 h with free access to water. To the control group, 1% CMC solution was administered p.o; to the standard group, indomethacin at a concentration of 20 mg/kg was administered orally; and to the test groups, tested compounds were administered orally at a concentration of 30 mg/kg. After the dose administration animals were kept for 17 h. After this, the animals were sacrificed for the appraisal of ulcerogenic assessment. The stomach was taken out from the animal body and washed with flushing water, then with a cotton swab wetted with saline (0.9%) and pinned on wax-coated try. The glandular portion of the stomach was cleaned again with saline to closely identify the presence of a type of ulcers or hemorrhage mark using a magnifying glass. The mucosal injury of the stomach was evaluated as per the following system: 0.5 = redness; 1 = spot ulcer; 1.5 = hemorrhage streak; 2 = ulcers < 3; 3 = ulcers > 3 < 5. The value obtained as a result of the mean score of the individual treated group—mean score of control is referred to as the severity index of the gastric mucosal damage.

[2] abbreviates: 2 h, 2 h, read-out: % Age Inhibition of Rat Paw Edema, 2 H.
The mark [3] stands for this setting: 4 h, 4 h, read-out: % Age Inhibition of Rat Paw Edema, 4 H.

Where “and” joins values, the source holds several entries; their conditions need not be identical. Identical values can stand only once. Entries after “also recorded” stand apart in the source; their conditions may differ. Like-named read-outs stand apart in the source and are kept apart here.

A word on the melting point: it is the temperature of the solid-liquid transition. Compound `O=C1C(=NNc2nc(-c3cc4ccccc4oc3=O)cs2)c2ccccc2N1CNc1ccc(Cl)cc1` [Compound 4c, 1-[(4-Chloro-phenylamino)-methyl]-3-{[4-(2-oxo-2H-chromen-3-yl)-thiazol-2-yl]-hydrazono}-1,3-dihydro-indol-2-one] displayed a melting point of 233 to 235 °C. Further, the inhibition in vivo at 10 mg/kg in data set [1] (oral dose 10 mg/kg, mean ± SEM) was found to be 59.9 ± 0.846%. In addition, the “Potency (analgesic)” value in data set [1] (10 mg/kg) came to 0.81. Moreover, in data set [1] (oral dose 10 mg/kg), the “Mean with ± SEM” value is recorded as 13.00 ± 0.2582. Moreover, in the data set on gastric tissue, the MDA content (lipid peroxidation) amounted to 4.08 ± 0.22 nmol MDA/100 mg tissue; the “Nanomoles of MDA Content ± SEM/ 100 mg Tissue” value was 4.08 ± 0.22 nmol of MDA/100 mg of gastric tissue and 4.26 ± 0.12 nmol of MDA/100 mg of gastric tissue. Besides, the inhibition in vivo at 10 mg/kg with Rat Paw Edema (setting [2]) came to 59.29 ± 0.143%. Moreover, in the data set with Rat Paw Edema (setting [3]), the inhibition in vivo at 10 mg/kg worked out at 30.17 ± 0.294%. Also, the “Potency (anti-inflammatory)” value in the data set with Rat Paw Edema (10 mg/kg) is 0.36. Further, the “Severity Index” value with gastric mucosal damage amounted to 0.666 ± 0.105.
The compound `O=C1C(=NNc2nc(-c3cc4ccccc4oc3=O)cs2)c2ccccc2N1CNc1ccccc1Cl` [Compound 4f, 1-[(2-chloro-phenylamino)-methyl]-3-{[4-(2-oxo-2H-chromen-3-yl)-thiazol-2-yl]-hydrazono}-1,3-dihydro-indol-2-one] displayed a melting point of 239 to 241 °C. Also, in data set [1] (oral dose 10 mg/kg, mean ± SEM), the inhibition in vivo at 10 mg/kg was determined as 69.36 ± 0.585%. In data set [1] (oral dose 10 mg/kg), the “analgesic activity (in words)” value is reported as “very good analgesic activity” and the “Mean with ± SEM” value was 9.93 ± 0.386. For the same compound, the “Potency (analgesic)” value in data set [1] (10 mg/kg) came out at 0.94. Also, in the data set on gastric tissue, the MDA content (lipid peroxidation) was 4.26 ± 0.12 nmol MDA/100 mg tissue; the “Nanomoles of MDA Content ± SEM/ 100 mg Tissue” value was 4.26 ± 0.12 nmol of MDA/100 mg of gastric tissue and 4.08 ± 0.22 nmol of MDA/100 mg of gastric tissue. Also, in the data set on Rat Paw Edema (setting [2]), the inhibition in vivo at 10 mg/kg was 48.38 ± 0.219%. In addition, in the data set with Rat Paw Edema (setting [3]), the inhibition in vivo at 10 mg/kg was 72.4%. The “% Age Inhibition of Rat Paw Edema, 4 H” value in the data set on Rat Paw Edema (4 h, 10 mg/kg) is given as 72.42 ± 0.183 %. For the same compound, in the data set with Rat Paw Edema (10 mg/kg), the “anti-inflammatory activity (in words)” value is listed as “good anti-inflammatory activity; also recorded: significant anti-inflammatory activity” and the “Potency (anti-inflammatory)” value is 0.88. In addition, the “Severity Index” value in the data set with gastric mucosal damage is given as 0.666 ± 0.105.
The compound `O=C1C(=NNc2nc(-c3cc4ccccc4oc3=O)cs2)c2ccccc2N1CNc1ccc(F)c(Cl)c1` [Compound 4i, 1-[(3-Chloro-4-fluoro-phenylamino)-methyl]-3-{[4-(2-oxo-2H-chromen-3-yl)-thiazol-2-yl]-hydrazono}-1,3-dihydro-indol-2-one] came in with a melting point of 246 to 248 °C. In addition, the inhibition in vivo at 10 mg/kg in data set [1] (oral dose 10 mg/kg, mean ± SEM) came out at 66.3 ± 1.01%. For the same compound, in data set [1] (oral dose 10 mg/kg, 10 mg/kg), the “analgesic activity (in words)” value is “very good analgesic activity; also recorded: good analgesic activity”. Besides, the “Potency (analgesic)” value in data set [1] (10 mg/kg) was 0.90. The “Mean with ± SEM” value in data set [1] (oral dose 10 mg/kg) is recorded as 10.93 ± 0.3128. In addition, in the data set on gastric tissue, the MDA content (lipid peroxidation) was 3.89 ± 0.17 nmol MDA/100 mg tissue and the “Nanomoles of MDA Content ± SEM/ 100 mg Tissue” value is reported as 3.89 ± 0.17 nmol of MDA/100 mg of gastric tissue. Also, in the data set with Rat Paw Edema (setting [2]), the inhibition in vivo at 10 mg/kg was determined as 31.27 ± 0.188%. Further, the inhibition in vivo at 10 mg/kg in the data set on Rat Paw Edema (setting [3]) stood at 63.95 ± 0.218%. The “anti-inflammatory activity (in words)” value with Rat Paw Edema was “moderate anti-inflammatory activity”. For the same compound, in the data set on Rat Paw Edema (10 mg/kg), the “Potency (anti-inflammatory)” value is reported as 0.77. Further, the “Severity Index” value in the data set on gastric mucosal damage was determined as 0.500 ± 0.129.
Take `Cc1ccccc1NCN1C(=O)C(=NNc2nc(-c3cc4ccccc4oc3=O)cs2)c2ccccc21` [Compound 4n, 3-{[4-(2-Oxo-2H-chromen-3-yl)-thiazol-2-yl]-hydrazono}-1-(o-tolylamino-methyl)-1,3-dihydro-indol-2-one]: the melting point is 237 to 239 °C. In addition, the inhibition in vivo at 10 mg/kg in data set [1] (oral dose 10 mg/kg, mean ± SEM) stood at 69.14 ± 0.689%. In data set [1] (oral dose 10 mg/kg), the “analgesic activity (in words)” value is given as “very good analgesic activity” and the “Mean with ± SEM” value worked out at 10.00 ± 0.3651. The “Potency (analgesic)” value in data set [1] (10 mg/kg) is recorded as 0.93. In the data set with gastric tissue, the MDA content (lipid peroxidation) stood at 4.81 ± 0.13 nmol MDA/100 mg tissue and the “Nanomoles of MDA Content ± SEM/ 100 mg Tissue” value was 4.81 ± 0.13 nmol of MDA/100 mg of gastric tissue. Further, the inhibition in vivo at 10 mg/kg in the data set on Rat Paw Edema (setting [2]) came out at 42.57 ± 0.213%. The inhibition in vivo at 10 mg/kg in the data set with Rat Paw Edema (setting [3]) is 69.58 ± 0.133%. In addition, the “Potency (anti-inflammatory)” value in the data set on Rat Paw Edema (10 mg/kg) turned out to be 0.84. The “severity index as share of the severity shown by the standard” value in the data set on gastric mucosal damage (relative to indomethacin) worked out at 20%.
On to `COc1ccc2c(c1)c(CC(=O)O)c(C)n2C(=O)c1ccc(Cl)cc1` [Indomethacin, reference compound], for which the inhibition in vivo at 10 mg/kg in data set [1] (oral dose 10 mg/kg, mean ± SEM) came to 73.6%; in the data set with Rat Paw Edema (setting [2]) it was 66.34 ± 0.051%; with Rat Paw Edema (setting [3]), 82%. For the same compound, the “% Analgesic Activity” value in data set [1] (oral dose 10 mg/kg, mean ± SEM, 10 mg/kg) came out at 73.61 ± 0.315 %. The “Potency (analgesic)” value in data set [1] (10 mg/kg) amounted to 1.00. In addition, in data set [1] (oral dose 10 mg/kg), the “Mean with ± SEM” value stood at 8.55 ± 0.394. The “Nanomoles of MDA Content ± SEM/ 100 mg Tissue” value with gastric tissue and with gastric tissue (listed as indomethacin) was 6.71 ± 0.18 nmol of MDA/100 mg of gastric tissue each time. Also, in the data set on Rat Paw Edema (4 h, 10 mg/kg), the “% Age Inhibition of Rat Paw Edema, 4 H” value is 82.05 ± 0.08%. For the same compound, in the data set with Rat Paw Edema (10 mg/kg), the “Potency (anti-inflammatory)” value came to 1.00. The “Severity Index” value with gastric mucosal damage stood at 4.500 ± 0.316.
